Test results published in article PMC6033896, “Discovery of Mcl-1 inhibitors from integrated high throughput and virtual screening” (Scientific Reports, 2018).
“Also recorded” adds a separate entry of the source.

Tests used:
[1] = system: Eµ-myc lymphoma cells overexpressing Mcl-1; assay: Eµ-myc lymphoma cell viability, flow cytometry; assay type: cell-based, mice; details: increasing concentrations, 15 h
Method: (§1) MEF cells, including wild-type, Bax/Bak double knockout, Bax−/− single knockout, and Bak−/− single knockout were tested and characterized (Supplementary Fig. S3). The cells were cultured in DMEM (Life Technologies), supplemented with 10% fetal bovine serum (FBS) (Thermo Scientific HyClone) and 1% Penicillin/streptomycin solution (Life Technologies). The retrovirally transduced lymphoma cells isolated from Eμ-myc transgenic mice were provided by Ricky W. Johnstone at the University of Melbourne, Melbourne, Australia and cultured as previously described[37],[65].
(§2) The Mcl-1, Bcl-2, and Bcl-xL retroviral transduced lymphoma Eμ-myc cells were seeded in 12-well plates at 0.5 × 10^6 cells/well. […] The cells were harvested and stained with violet LIVE/DEAD Fixable Dead Cell Stain Kit (Invitrogen) according to manufacturer’s protocol. The percentage of fluorescent positive cells was determined by flow cytometry and calculated using WinList 3.0.

[2] = system: Eµ-myc lymphoma cells overexpressing Bcl-2; assay: Eµ-myc lymphoma cell viability, flow cytometry; assay type: cell-based, mice; details: increasing concentrations
Method: as §1, §2

Bcl-2 = assay: FP-based competitive binding assay with FAM-Bid; set-up: species or system human; details: ratio of Ki
[3] = system: Bak−/− single knockout MEFs; assay: MEF cell death, propidium iodide flow cytometry; assay type: cell-based, mouse; details: increasing concentrations, 15 h
Method: as §1
(§3) MEFs were seeded in 24-well plates at 0.5 × 10^5 cells/well, left to adhere for 5 hours and then treated for 15 hours with increasing concentrations of the compounds. The cells were harvested, washed with phosphate-buffered saline (PBS) and stained with 0.025 mg/ml propidium iodide (MP Biomedicals). The percentage of the propidium iodide positive population was determined by flow cytometry and calculated using WinList 3.0.

[4] = system: Bax−/− single knockout MEFs; assay: MEF cell death, propidium iodide flow cytometry; assay type: cell-based, mouse; details: increasing concentrations, 15 h
Method: as §1, §3

15N-labeled Mcl-1 = molecular target: T1, 15N-labeled Mcl-1 (Homo sapiens, UniProt Q07820); assay: 1H,15N HSQC NMR chemical shift perturbation; details: direct binding to Mcl-1
T1 construct: human Mcl-1 (residues 171–323); made in house; host or cells: E. coli (bacteria grown on M9 minimal medium with 15N ammonium sulphate)
T1 sequence (Q07820 171-323): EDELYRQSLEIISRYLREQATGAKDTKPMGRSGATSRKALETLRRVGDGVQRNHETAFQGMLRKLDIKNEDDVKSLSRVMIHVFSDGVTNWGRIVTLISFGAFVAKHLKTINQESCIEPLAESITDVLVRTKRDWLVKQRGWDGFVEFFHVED
Method: NMR studies were performed as previously described. In brief, the ^15N-labeled Mcl-1 protein was prepared and purified using the same protocol as for unlabelled protein with the exception that the bacteria were grown on M9 minimal media supported with 1 g/L of (^15NH4)2SO4. Protein samples were prepared in a 20 mM sodium phosphate, 150 mM NaCl and 1 mM DTT solution at pH 7 in 7% D2O. The binding mode of compounds has been characterized with a solution of uniformly ^15N-labeled Mcl-1 (75 μM) in the absence and presence of added compounds (in 1 or 6% final DMSO) with the indicated molar ratio concentrations. The total volume of each sample was 150 μL and samples were prepared in Bruker tubes (Bruker, # Z117724). All Spectra were acquired at 30 °C on a Bruker 600 MHz NMR spectrometer equipped with a cryogenic probe, processed using Bruker TopSpin and rNMR, and were analysed with Sparky. Plots of chemical shift changes were calculated as ((Δ^1H ppm)2 + (0.2(Δ^15N ppm))2)0.5 of Mcl-1 amide upon addition of compound. The absence of a bar in a chemical shift plot indicates no chemical shift difference or the presence of a proline or residue that is overlapped or not assigned. The cutoff threshold for determining the significance of the chemical shift was based on one standard deviation above the average of all chemical shifts.

Compound | killing of Eµ-myc cells overexpressing Mcl-1 [1] | effect on Eµ-myc cells overexpressing Bcl-2 [2] | fold lower binding affinity to Bcl-2 than to Mcl-1 (Bcl-2) | cell death in Bak−/− MEFs [3] | cell death in Bax−/− MEFs [4] | chemical shift perturbations of Mcl-1 amides (HSQC NMR) (15N-labeled Mcl-1)
c1ccc(CCCCSc2nnc(-c3ccco3)c(-c3ccco3)n2)cc1 [Compound 44] | killing | selectivity |  |  |  | 
O=C(CSc1nnc(-c2ccco2)c(-c2ccco2)n1)Nc1cccc(C(F)(F)F)c1 [Compound 39] | selective killing; also recorded: selectively kills Mcl-1 dependent cell lines | selectivity; also recorded: minimal effect | > 20 fold | rescued the cells | rescued the cells | 
O=C(CSc1nnc(-c2ccco2)c(-c2ccco2)n1)Nc1ccccc1 [Compound 19] |  |  |  |  |  | concentration-dependent perturbations
